Data as given in patent US5855885A, “Isolation and production of catalytic antibodies using phage technology” (priority 1994, dated 1999).

Legend:
[1] = system: mouse anti-RT3 scFv clone 64 (PCR pattern A); assay: competitive inhibition ELISA, scFv binding to RT3-BSA; conditions: 100 uM competitor, preincubated 1 hour at room temperature; ELISA signal normalized to no inhibitor (FIG. 8)
Procedure: (§1) The clones selected for analysis and their corresponding PCR pattern (see Table 1, Example 4.3) were: 50 (PCR B), 64 (PCR A), 68 (PCR D), 71 (PCR E), 80 (PCR C), 84 (PCR A), 95 (PCR I), 96 (PCR A), and 97 (PCR A). Soluble scFv was purified from 50 ml cultures of each clone using the IMAC protocol described in Example 4.1, except bound antibody was eluted with 50 mM EDTA, 0.5M NaCl. The scFv concentration for each clone was estimated from silver stained SDS polyacrylamide gels by running a portion of the eluted protein on a gel containing appropriate scFv concentration standards. The scFv protein was diluted to 4 ug/ml and then serially diluted 1:2 across 11 wells of RT3-BSA coated ELISA plate. The concentration of scFv giving 50% of the maximum ELISA signal was determined from the titration. This concentration of scFv was used for a subsequent competitive inhibition assay described below.
(§2) A competitive inhibition ELISA assay was performed by incubating scFV (at a concentration as determined by titration above) with 100 uM of each of the following compounds: RT3 hapten (Compound 7, FIG. 1), left hand portion of RT3 hapten (designated RT3A, Compound 8, FIG. 2), right hand portion of RT3 hapten (designated RT3B, Compound 12, FIG. 3), The left and right hand portions of the expected products from the esteriolytic cleavage of substrate (Compound 15, FIG. 4) designated Product A (Mesitylacetic acid, FIG. 4) and Product B (Compound 13, FIG. 4). The scFv was preincubated with the inhibitor compound in tubes at room temperature for 1 hour prior to addition to RT3-BSA coated ELISA wells. The […] readings have been normalized to a value of 1, which represents the ELISA signal seen for the corresponding scFv in the absence of added competitive inhibitor.

[2] = system: mouse anti-RT3 scFv clone 96 (PCR pattern A); assay: as above; conditions: 100 uM competitor, preincubated 1 hour at room temperature; ELISA signal normalized to no inhibitor (FIG. 8)
Procedure: as §1, §2

[3] = system: mouse anti-RT3 scFv clone 50 (PCR pattern B); assay: as above; conditions: 100 uM competitor, preincubated 1 hour at room temperature; ELISA signal normalized to no inhibitor (FIG. 8)
Procedure: as §1, §2

[4] = system: mouse anti-RT3 scFv clone 95 (PCR pattern I); assay: as above; conditions: 100 uM competitor, preincubated 1 hour at room temperature; ELISA signal normalized to no inhibitor (FIG. 8)
Procedure: as §1, §2

[5] = system: mouse RT3 phage antibody scFv clone 71 (PCR pattern E); assay: as above; conditions: 100 uM competitor, preincubated 1 hour at room temperature; ELISA signal normalized to no inhibitor (FIG. 8); clone cross-reacts with BSA
Procedure: as §1, §2

[6] = system: mouse anti-RT3 scFv clone 84 (PCR pattern A); assay: as above; conditions: 100 uM competitor, preincubated 1 hour at room temperature; ELISA signal normalized to no inhibitor (FIG. 8)
Procedure: as §1, §2

[7] = system: mouse RT3 phage antibody scFv clone 68 (PCR pattern D); assay: as above; conditions: 100 uM competitor, preincubated 1 hour at room temperature; ELISA signal normalized to no inhibitor (FIG. 8); clone cross-reacts with BSA
Procedure: as §1, §2

[8] = system: mouse anti-RT3 scFv clone 80 (PCR pattern C); assay: as above; conditions: 100 uM competitor, preincubated 1 hour at room temperature; ELISA signal normalized to no inhibitor (FIG. 8)
Procedure: as §1, §2

[9] = system: mouse anti-RT3 scFv clone 97 (PCR pattern A); assay: as above; conditions: 100 uM competitor, preincubated 1 hour at room temperature; ELISA signal normalized to no inhibitor (FIG. 8)
Procedure: as §1, §2

[10] = system: catalytic mouse anti-RT3 scFv clone 18; assay: catalytic assay (HPLC), hydrolysis of RT3 substrate by scFv; type: biochemical
Procedure: (§3) To further examine the scFv fragments for catalytic activity, the potentially-catalytic proteins identified in the early screen described above were individually grown and purified. Purification of the scFv was acheived as described in Example 6.1 using either IMAC or affinity chromotagraphy on anti-Myc-Protein A agarose. Assays were performed in the same buffer systems and pH values as in the early screen but the antibodies were tested individually and they were not immobilized but free in solution.
(§4) From these secondary assays, two scFv molecules, designated 18 and 83, catalytic activity was found. Clone 18 appeared to be active at pH 9.0 but not at pH 7.0 while clone 83 appeared to be active at pH 7.0 but not at pH 9.0 or 5.0. […] These two clones were selected as candidates for large scale purifcation of scFv as described below. The results of these assays are presented in Example 6.4.
For clone 18 a typical catalytic assay was set up as follows: 50 μl of scFv was added to 145 μl of RT3 substrate (Compound 15, FIG. 4) and 5 μl of water or for some assays 5 μl of RT3 hapten. A blank consisting of 50 μl of water and […] of RT3 substrate was set up to monitor the background hydrolysis of the RT3 substrate. The reaction was allowed to proceed for 6 hours after which samples were frozen at -20° C. to stop the reaction. Samples were analyzed by HPLC as described in example 5.1. […]

[11] = system: catalytic mouse anti-RT3 scFv clone 83; assay: as above; type: biochemical
Procedure: as §3, §4
Assay of IMAC or HIC purified scFv from clone 83 was done in a similar manner as described for clone 18 with the following exceptions. Substrate was buffered in 25 mM HEPES, pH 7.0, 140 mM NaCl and 0.01% NaN3. Due to the lower background hydrolysis of RT3 substrate at neutral pH, reactions were typically run for 24 hours. A blank was also analyzed and gives a profile similar to the that in FIG. 17B (data not shown).

| SMILES | inhibition of scFv binding to RT3-BSA [1] | inhibition of scFv binding to RT3-BSA [2] | inhibition of scFv binding to RT3-BSA [3] | inhibition of scFv binding to RT3-BSA [4] | inhibition of scFv binding to RT3-BSA [5] | inhibition of scFv binding to RT3-BSA [6] | inhibition of scFv binding to RT3-BSA [7] | inhibition of scFv binding to RT3-BSA [8] | inhibition of scFv binding to RT3-BSA [9] | catalysis in the presence of RT3 hapten ([10]; IMAC pure scFv, 50 uM RT3 substrate, pH 9.0, 6 hours, 5 μl RT3 hapten added (concentration not given), FIG. 15B) | inhibition of catalytic activity ([10]; secondary screening, pH 9.0, 10 μM antibody, 40 μM substrate, 30 μM hapten) | catalysis in the presence of RT3 hapten ([11]; IMAC pure scFv, RT3 substrate, pH 7.0, 24 hours, RT3 hapten added (concentration not given), FIG. 17B) | inhibition of catalytic activity ([11]; secondary screening, pH 7.0, 10 μM antibody, 40 μM substrate, 30 μM hapten) |
| --- | --- | --- | --- | --- | --- | --- | --- | --- | --- | --- | --- | --- | --- |
| Cc1cc(C)c(CC(=O)O)c(C)c1 [Product A, Mesitylacetic acid, reference compound] | to a lesser extent | to a lesser extent |  |  |  |  |  |  |  |  |  |  |  |
| NC(=O)Cc1ccc(O)cc1 [Product B, 4-Hydroxyphenylacetamide] | No inhibition | No inhibition | No inhibition | No inhibition | No inhibition | No inhibition | No inhibition | No inhibition | No inhibition |  |  |  |  |
| Cc1cc(C)c(CP(=O)(O)Oc2ccc(CC(=O)O)cc2)c(C)c1 [RT3 hapten, 4-(carboxymethyl) phenyl-(2,4,6-trimethylphenyl)-methyl phosphonate] | inhibited | inhibited | inhibited | inhibited | did not show inhibition | inhibited | did not show inhibition | inhibited | inhibited | completely abrogated | significantly inhibited | completely abrogated | significantly inhibited |
| COP(=O)(O)Cc1c(C)cc(C)cc1C [RT3A] | binding inhibition | binding inhibition | binding inhibition |  |  | binding inhibition |  |  | binding inhibition |  |  |  |  |
